Source: ChEMBL document CHEMBL5634134, “Design, synthesis, and biological evaluation of novel 4,4'-bipyridine derivatives acting as CDK9-Cyclin T1 protein-protein interaction inhibitors against triple-negative breast cancer” (Eur J Med Chem, 2023)
pIC50: −log10 of the molar value. Calls of active or inactive are those of the source. No cut-off for these calls is given here.

Assays:
MDA-MB-231 [1] = assay: Antiproliferative activity against human MDA-MB-231 cells assessed as inhibition of cell growth incubated for 48 hrs by MTT assay; format: functional, cell-based; conditions: MDA-MB-231, 48 h
[2] = Cytotoxicity against human MCF-10A cells assessed as inhibition of cell growth incubated for 72 hrs by MTT assay; format: toxicity, cell-based
[3] = Cytotoxicity against human L02 cells assessed as inhibition of cell growth incubated for 72 hrs by MTT assay; format: toxicity, cell-based
[4] = Cytotoxicity against HK-2 cells assessed as inhibition of cell growth incubated for 72 hrs by MTT assay; format: toxicity, cell-based; conditions: human
[5] = Cytotoxicity against human MRC5 cells assessed as inhibition of cell growth incubated for 72 hrs by MTT assay; format: toxicity, cell-based
[6] = Selectivity index, ratio of IC50 for the cytotoxicity against human LO2 cells to IC50 for antiproliferative activity against human MDA-MB-231 cells; format: toxicity, cell-based; conditions: LO2 cells versus MDA-MB-231 cells, read-out: Ratio IC50
CDK9/cyclin T1 = CDK9/cyclin T1 (Homo sapiens, UniProt P50750); assay: Inhibition of human CDK9/Cyclin T1 in presence of ATP by radiometric kinase assay; format: protein-complex assay
CDK9/cyclin T1, sequence (O60563 whole entry): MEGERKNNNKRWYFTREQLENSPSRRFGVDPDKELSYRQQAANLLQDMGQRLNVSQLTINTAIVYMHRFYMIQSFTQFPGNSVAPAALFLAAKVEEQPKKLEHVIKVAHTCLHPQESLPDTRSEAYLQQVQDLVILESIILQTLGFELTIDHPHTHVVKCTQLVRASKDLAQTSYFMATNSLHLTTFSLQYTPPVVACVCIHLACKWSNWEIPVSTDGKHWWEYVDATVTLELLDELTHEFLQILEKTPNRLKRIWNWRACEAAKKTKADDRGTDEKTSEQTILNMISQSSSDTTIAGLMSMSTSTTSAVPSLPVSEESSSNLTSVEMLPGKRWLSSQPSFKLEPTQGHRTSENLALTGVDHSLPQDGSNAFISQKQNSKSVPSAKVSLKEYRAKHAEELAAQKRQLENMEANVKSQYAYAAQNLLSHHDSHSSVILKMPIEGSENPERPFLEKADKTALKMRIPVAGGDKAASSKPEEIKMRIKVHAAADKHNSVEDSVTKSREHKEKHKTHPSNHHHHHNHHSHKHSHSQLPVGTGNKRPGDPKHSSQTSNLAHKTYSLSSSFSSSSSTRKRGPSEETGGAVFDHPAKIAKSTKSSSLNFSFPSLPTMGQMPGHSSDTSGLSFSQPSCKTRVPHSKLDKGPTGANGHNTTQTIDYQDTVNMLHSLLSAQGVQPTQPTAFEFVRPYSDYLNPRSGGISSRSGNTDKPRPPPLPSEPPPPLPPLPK
CDK9/cyclin T1, sequence (P50750 whole entry): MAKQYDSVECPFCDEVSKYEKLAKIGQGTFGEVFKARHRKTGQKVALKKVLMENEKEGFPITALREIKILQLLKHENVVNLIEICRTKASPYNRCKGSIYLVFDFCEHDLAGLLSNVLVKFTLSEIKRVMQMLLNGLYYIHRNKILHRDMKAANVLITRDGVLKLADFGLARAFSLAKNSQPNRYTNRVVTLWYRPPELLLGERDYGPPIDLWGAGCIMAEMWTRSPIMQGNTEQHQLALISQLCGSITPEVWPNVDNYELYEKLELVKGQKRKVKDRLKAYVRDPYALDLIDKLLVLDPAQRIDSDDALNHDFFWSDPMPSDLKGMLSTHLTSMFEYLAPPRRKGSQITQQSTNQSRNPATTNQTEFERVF

MDA-MB-231 [7] = assay: Induction of apoptosis in human MDA-MB-231 cells assessed as viable cells at 1000 nM incubated for 72 hrs by Annexin V-FITC/PI staining based flow cytometry analysis (reference value: 94.81 %); format: functional; conditions: read-out: Activity
MDA-MB-231 [8] = assay: Induction of apoptosis in human MDA-MB-231 cells assessed as early apoptotic cells at 1000 nM incubated for 72 hrs by Annexin V-FITC/PI staining based flow cytometry analysis (reference value: 0.66 %); format: functional
MDA-MB-231 [9] = assay: Induction of apoptosis in human MDA-MB-231 cells assessed as late apoptotic cells at 1000 nM incubated for 72 hrs by Annexin V-FITC/PI staining based flow cytometry analysis (reference value: 4.04 %); format: functional
MDA-MB-231 [10] = assay: Induction of apoptosis in human MDA-MB-231 cells assessed as necrotic cells at 1000 nM incubated for 72 hrs by Annexin V-FITC/PI staining based flow cytometry analysis (reference value: 0.49 %); format: functional
[11] = biological target: CDK9/cyclin T1 (Homo sapiens) (UniProt O60563+P50750); assay: Inhibition of CDK9/Cyclin T1 protein-protein interaction in human MDA-MB-231 cells at 3 uM incubated for 8 hrs by co-immunoprecipitation assay; format: cell-based
MDA-MB-231 [12] = assay: cells; conditions: Homo sapiens, MDA-MB-231, 72 h
BT-549 [13] = assay: cells; conditions: Homo sapiens, BT-549, 72 h
4T1 = assay: cells; conditions: Mus musculus, 4T1, 72 h
A549 = assay: cells; conditions: Homo sapiens, A549, 72 h
HeLa = assay: cells; conditions: Homo sapiens, 72 h
Hs-578T = assay: cells; conditions: Homo sapiens, 72 h
HepG2 = assay: cells; conditions: Homo sapiens, HepG2, 72 h
MDA-MB-231 [14] = assay: Inhibition of RNA Polymerase II CTD phosphorylation at ser2 residue in human MDA-MB-231 cells at 1 uM incubated for 24 hrs by Western blotting analysis; format: cell-based
MDA-MB-468 = assay: Antiproliferative activity against human MDA-MB-468 cells assessed as inhibition of cell growth by MTT assay; format: functional, cell-based
BT-549 [15] = assay: Antiproliferative activity against human BT-549 cells assessed as inhibition of cell growth by MTT assay; format: functional, cell-based
T47D = assay: Antiproliferative activity against human T47D cells assessed as inhibition of cell growth by MTT assay; format: functional, cell-based
[16] = Cytotoxicity against human MCF-10A cells assessed as inhibition of cell growth by MTT assay; format: toxicity, cell-based
[17] = Cytotoxicity against HEK293T cells assessed as inhibition of cell growth by MTT assay; format: toxicity, cell-based, HEK-293T; conditions: human
MDA-MB-231 [18] = assay: Antiproliferative activity against human MDA-MB-231 cells assessed as inhibition of cell growth by MTT assay; format: functional, cell-based
[19] = Cytotoxicity against human L02 cells assessed as inhibition of cell growth by MTT assay; format: toxicity, cell-based
MDA-MB-231 [20] = assay: cells; conditions: Homo sapiens
MDA-MB-436 = assay: cells; conditions: Homo sapiens
BT-549 [21] = assay: cells; conditions: Homo sapiens
MDA-MB-231 [22] = assay: Inhibition of colony formation in human MDA-MB-231 cells at 2 uM incubated for 10 days by crystal violet staining based analysis; format: functional, cell-based; conditions: time 10.0 day
MDA-MB-231 [23] = assay: Antiproliferative activity against human MDA-MB-231 cells assessed as decrease in sphere size by measuring sphere diameter at 10 uM incubated for 10 days by confocal laser scanning microscopy (reference value: 508.27 micrometer); format: functional; conditions: time 10 day

SMILES	IC50 at 72 h [3] [nM]	pIC50 (MDA-MB-231 [12])	pIC50 (A549)	pIC50 (HeLa)	further results
O=P1(N(CCCl)CCCl)NCCCO1 (stereo unspecified) [CYCLOPHOSPHAMIDE ANHYDROUS]	–	–	–	–	pIC50 (MDA-MB-231 [1]): < 4.30
N[C@H]1CC[C@H](Nc2cc(-c3cccc(NCc4cccc(F)c4)n3)c(Cl)cn2)CC1	278	7.10	5.79	6.82	IC50 at 72 h [2]: 108 nM; IC50 at 72 h [4]: 187 nM; IC50 at 72 h [5]: 197 nM; selectivity ratio [6]: 3; pIC50 (CDK9/cyclin T1): > 9.40; viability at 1 µM (MDA-MB-231 [7]): 19.3%; Activity (MDA-MB-231 [8]): 37.6%; Activity (MDA-MB-231 [9]): 42.9%; Activity (MDA-MB-231 [10]): 0.2%; inhibition [11]: inactive; pIC50 (BT-549 [13]): 7.28; pIC50 (4T1): 6.94; pIC50 (Hs-578T): 7.13; pIC50 (HepG2): 6.33
COc1ccc(C(=O)Nc2cc(-c3ccnc(N4CCC(N)CC4)c3)ccn2)cc1	1380	5.94	5.62	< 5.00	–
COc1cccc(C(=O)Nc2cc(-c3ccnc(N4CCC(O)CC4)c3)ccn2)c1	2980	5.41	5.54	< 5.00	inhibition (MDA-MB-231 [14]): Active
Cc1ccccc1C(=O)Nc1cc(-c2ccnc(N3CCC(O)CC3)c2)ccn1	> 10000	< 5.00	< 5.00	< 5.00	–
CC(=O)O[C@H]1C(=O)[C@@]2(C)[C@H]([C@H](OC(=O)c3ccccc3)[C@]3(O)C[C@H](OC(=O)[C@H](O)[C@@H](NC(=O)c4ccccc4)c4ccccc4)C(C)=C1C3(C)C)[C@]1(OC(C)=O)CO[C@@H]1C[C@@H]2O [PACLITAXEL]	–	–	–	–	pIC50 (MDA-MB-231 [1]): > 8.30
COc1ccc(C(=O)Nc2cc(-c3ccnc(N4CCC(C)CC4)c3)ccn2)cc1	4170	6.74	5.57	5.80	–
COc1ccc(C(=O)Nc2cc(-c3ccnc(N(C)CCO)c3)ccn2)cc1	1120	6.44	< 5.00	6.28	–
COc1cc(C(=O)Nc2cc(-c3ccnc(N4CCC(O)CC4)c3)ccn2)cc(OC)c1OC	> 10000	5.76	5.25	5.24	inhibition (MDA-MB-231 [14]): Active
O=c1[nH]cc(F)c(=O)[nH]1 [FLUOROURACIL]	–	–	–	–	pIC50 (MDA-MB-231 [1]): 4.86
CCOc1cc(/C=N/O)ccc1OCC#CC1c2c(cc3c(c2OC)OCO3)CCN1C (stereo unspecified)	–	–	–	–	pIC50 (MDA-MB-468): 5.13; pIC50 (BT-549 [15]): 4.90; pIC50 (T47D): 4.28; pIC50 [16]: 4.45; pIC50 [17]: < 4.00; pIC50 (MDA-MB-231 [18]): 5.21; pIC50 [19]: < 4.00
CC1CCN(c2cc(-c3ccnc(NC(=O)c4ccc(F)cc4)c3)ccn2)CC1	> 10000	< 5.00	< 5.00	< 5.00	–
Cc1ccc(C(=O)Nc2cc(-c3ccnc(N4CCCC(O)C4)c3)ccn2)cc1 (stereo unspecified)	591	6.14	< 5.00	5.70	–
COc1cc(F)ccc1-c1ncnc(Nc2cccc(C[S@](C)(=N)=O)c2)n1 [ATUVECICLIB]	–	–	–	–	pIC50 (MDA-MB-231 [20]): 5.88; pIC50 (MDA-MB-436): 6.20; pIC50 (BT-549 [21]): 5.70
CC1CCN(c2cc(-c3ccnc(NC(=O)c4ccc(C(F)(F)F)cc4)c3)ccn2)CC1	> 10000	5.50	< 5.00	5.11	–
O=C(Nc1cc(-c2ccnc(N3CCC(O)CC3)c2)ccn1)c1ccc(C(F)(F)F)cc1	1960	6.95	5.78	6.59	inhibition (MDA-MB-231 [14]): Active
Cc1ccc(C(=O)Nc2cc(-c3ccnc(N4CCC(O)CC4)c3)ccn2)cc1	875	6.58	5.62	5.48	inhibition (MDA-MB-231 [14]): Active

SMILES	IC50 at 72 h [3] [nM]	pIC50 (MDA-MB-231 [12])	pIC50 (A549)	pIC50 (HeLa)	further results
CCN1CCN(c2cc(-c3ccnc(NC(=O)c4ccc(OC)cc4)c3)ccn2)CC1	6890	6.00	5.80	5.49	–
COc1ccc(CCC(=O)Nc2cc(-c3ccnc(N4CCC(O)CC4)c3)ccn2)cc1	> 10000	< 5.00	< 5.00	< 5.00	inhibition (MDA-MB-231 [14]): Active
COc1ccc(CNc2cc(-c3ccnc(N4CCC(O)CC4)c3)ccn2)cc1	> 10000	5.49	< 5.00	< 5.00	inhibition (MDA-MB-231 [14]): Active
COc1ccc(CC(=O)Nc2cc(-c3ccnc(N4CCC(O)CC4)c3)ccn2)cc1	> 10000	5.10	< 5.00	< 5.00	inhibition (MDA-MB-231 [14]): Active
COc1ccc(C(=O)Nc2cc(-c3ccnc(N4CCC(NC(=O)OC(C)(C)C)CC4)c3)ccn2)cc1	538	6.70	5.48	< 5.00	–
COc1ccc(C(=O)Nc2cc(-c3ccnc(N4CCN(C)CC4)c3)ccn2)cc1	> 10000	6.31	5.39	< 5.00	–
Cc1ccc(C(=O)Nc2cc(-c3ccnc(N4CCC(C)CC4)c3)ccn2)cc1	> 10000	5.89	< 5.00	5.41	–
O=C(Nc1cc(-c2ccnc(N3CCC(O)CC3)c2)ccn1)c1ccccc1Cl	> 10000	< 5.00	< 5.00	< 5.00	–
O=C(c1cc(Cc2n[nH]c(=O)c3ccccc23)ccc1F)N1CCN(C(=O)C2CC2)CC1 [OLAPARIB]	–	–	–	–	pIC50 (MDA-MB-231 [1]): < 4.30; inhibition (MDA-MB-231 [22]): inactive; Activity (MDA-MB-231 [23]): 472.83 um
Cc1sc2c(c1C)C(c1ccc(Cl)cc1)=N[C@@H](CC(=O)OC(C)(C)C)c1nnc(C)n1-2	–	–	–	–	pIC50 (MDA-MB-231 [1]): 5.50
O=C(Nc1cc(-c2ccnc(N3CCC(O)CC3)c2)ccn1)c1cc(Cl)cc(Cl)c1	> 10000	< 5.00	< 5.00	< 5.00	–
O=C(Nc1cc(-c2ccnc(N3CCCC(CO)C3)c2)c(Cl)cn1)c1ccc(F)cc1 (stereo unspecified)	> 10000	6.23	5.73	6.56	–
COc1cccc2c1C(=O)c1c(O)c3c(c(O)c1C2=O)C[C@@](O)(C(=O)CO)C[C@@H]3O[C@H]1C[C@H](N)[C@H](O)[C@H](C)O1 [DOXORUBICIN]	–	–	–	–	pIC50 (MDA-MB-231 [1]): 6.82
CCOc1ccc(C(=O)Nc2cc(-c3ccnc(N4CCC(O)CC4)c3)ccn2)cc1	132	6.99	5.27	5.87	selectivity ratio [6]: 1; inhibition (MDA-MB-231 [14]): Active
COc1ccc(C(=O)Nc2cc(-c3ccnc(N4CCCC(CO)C4)c3)ccn2)cc1 (stereo unspecified)	2600	7.12	5.61	6.57	selectivity ratio [6]: 34
CC1CCCN(c2cc(-c3ccnc(NC(=O)c4ccc(F)cc4)c3)ccn2)C1 (stereo unspecified)	1230	6.56	5.36	6.32	–
Cc1cccc(C(=O)Nc2cc(-c3ccnc(N4CCC(C)CC4)c3)ccn2)c1	6370	5.50	< 5.00	< 5.00	–
